The term IC50 denotes the concentration that gives 50% inhibition. A high value points to a need for much substance.

The text below walks through data of US10899753B2, “Inhibiting agents for Bruton's tyrosine kinase” (BIOGEN MA INC., priority 2018, dated 2021).

Assay [1] concerns the target T1, BTK (Homo sapiens (Human), UniProt Q06187). In words: In Vitro BTK Kinase Assay: BTK-POLYGAT-LS ASSAY. In kind it is biochemical. Conditions: fluorescein-labeled polyGAT peptide 100 nM, BTK enzyme 0.25 nM, 30 minutes, TRF. The method in brief:
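ATP […] and polyGAT peptide (100 nM), final concentrations, in Tris-HCl pH 7.5 kinase buffer with MgCl2, DTT, Triton X-100 and casein. Reaction run 30 min, stopped with EDTA, then 45 min at room temperature.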

Assay [2] deals with T1, BTK. In words: In Vitro PD Assay in Human Whole Blood (pBTK assay). Type of assay: cell-based. Conditions: human heparinized whole blood, 37° C. for 30 min, total BTK capture and phosphotyrosine detection (ECL). The method in brief:
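Heparinized human venous whole blood spiked with serially diluted compound (0.1% DMSO final) and incubated 30 min at 37° C. Lysed with protease/phosphatase inhibitors (high control +PPi, low control −PPi lacking phosphatase inhibitors); total BTK captured and phosphotyrosine detected.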

T1 sequence (Q06187 whole entry): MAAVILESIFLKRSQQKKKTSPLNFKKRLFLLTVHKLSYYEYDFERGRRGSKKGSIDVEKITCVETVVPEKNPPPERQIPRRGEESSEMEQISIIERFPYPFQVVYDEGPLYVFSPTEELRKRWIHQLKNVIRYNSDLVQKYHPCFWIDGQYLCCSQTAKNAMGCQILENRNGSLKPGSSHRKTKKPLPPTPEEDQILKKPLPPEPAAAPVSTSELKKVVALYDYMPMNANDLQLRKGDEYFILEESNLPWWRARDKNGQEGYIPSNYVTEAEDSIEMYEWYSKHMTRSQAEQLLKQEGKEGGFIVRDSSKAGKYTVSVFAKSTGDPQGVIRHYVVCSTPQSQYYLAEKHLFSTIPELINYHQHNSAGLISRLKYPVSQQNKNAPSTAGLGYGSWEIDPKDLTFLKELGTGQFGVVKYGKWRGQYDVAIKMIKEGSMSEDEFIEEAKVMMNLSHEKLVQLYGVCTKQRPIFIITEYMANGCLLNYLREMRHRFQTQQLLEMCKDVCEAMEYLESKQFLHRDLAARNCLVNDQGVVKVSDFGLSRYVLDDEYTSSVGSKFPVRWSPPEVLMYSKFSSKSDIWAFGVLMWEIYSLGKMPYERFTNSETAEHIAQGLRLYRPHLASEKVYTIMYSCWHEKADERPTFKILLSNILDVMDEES

For the molecule `Cc1cc(-c2ncnc(Nc3cnn(C)c3)n2)c(F)cc1CNC(=O)c1cnn(C(C)(C)C)c1` [Compound 61, 1-(tert-butyl)-N-(5-fluoro-2-methyl-4-(4-((1-methyl-1H-pyrazol-4-yl)amino)-1,3,5-triazin-2-yl)benzyl)-1H-pyrazole-4-carboxamide], the IC50 was under 1 nM at BTK [1] and 100 to 500 nM at BTK [2].

With `Cc1c([C@@H](C)NC(=O)c2noc(C(C)(C)C)n2)ccc(-c2ncnc(Nc3cnn(C)c3)n2)c1Cl` [Compound 81, (R)-5-(tert-butyl)-N-(1-(3-chloro-2-methyl-4-(4-((1-methyl-1H-pyrazol-4-yl)amino)-1,3,5-triazin-2-yl)phenyl)ethyl)-1,2,4-oxadiazole-3-carboxamide], the IC50 on BTK [1] is under 1 nM; on BTK [2], under 100 nM.

In the case of `Cn1cc(Nc2ncnc(-c3ccc(CNC(=O)c4noc(C(C)(C)C)n4)c(Cl)c3)n2)cn1` [Compound 15, 5-(tert-butyl)-N-(2-chloro-4-(4-((1-methyl-1H-pyrazol-4-yl)amino)-1,3,5-triazin-2-yl)benzyl)-1,2,4-oxadiazole-3-carboxamide], the IC50 was under 1 nM against BTK [1] and 100 to 500 nM against BTK [2].

With `Cn1ccc(Nc2ncnc(-c3cc4c(cc3F)[C@H](NC(=O)c3nc(C(C)(C)C)no3)CCCC4)n2)n1` [Compound 85, (R)-3-(tert-butyl)-N-(3-fluoro-2-(4-((1-methyl-1H-pyrazol-3-yl)amino)-1,3,5-triazin-2-yl)-6,7,8,9-tetrahydro-5H-benzo[7]annulen-5-yl)-1,2,4-oxadiazole-5-carboxamide], the IC50 on BTK [1] is under 1 nM; at BTK [2], under 100 nM.

In the case of `Cn1cc(Nc2ncnc(-c3ccc(CNC(=O)c4noc(C5(C)CC5)n4)c(Cl)c3F)n2)cn1` [Compound 30, N-(2-chloro-3-fluoro-4-(4-((1-methyl-1H-pyrazol-4-yl)amino)-1,3,5-triazin-2-yl)benzyl)-5-(1-methylcyclopropyl)-1,2,4-oxadiazole-3-carboxamide], the IC50 was under 1 nM at BTK [1] and under 100 nM on BTK [2].

Turning to `Cn1cc(Nc2ncnc(-c3ccc4c(c3)CN(CC(F)(F)F)CC[C@H]4NC(=O)c3nc(C(C)(C)C)co3)n2)cn1` [Compound 93, 4-tert-butyl-N-[(5R)-8-[4-[(1-methylpyrazol-4-yl)amino]-1,3,5-triazin-2-yl]-2-(2,2,2-trifluoroethyl)-1,3,4,5-tetrahydro-2-benzazepin-5-yl]oxazole-2-carboxamide], the IC50 is under 1 nM on BTK [1] and under 100 nM at BTK [2].

Consider `Cc1cc(-c2ncnc(Nc3cnn(C)c3)n2)c(F)cc1CNC(=O)c1noc(C(C)(C)C)n1` [Compound 56, 5-(tert-butyl)-N-(5-fluoro-2-methyl-4-(4-((1-methyl-1H-pyrazol-4-yl)amino)-1,3,5-triazin-2-yl)benzyl)-1,2,4-oxadiazole-3-carboxamide], for which the half-inhibitory concentration (IC50) on BTK [1] is under 1 nM; against BTK [2], 100 to 500 nM.

As to `Cc1cc(-c2ncnc(Nc3cnn(C)c3)n2)c(F)cc1CNC(=O)c1noc(C2(CF)CC2)n1` [Compound 51, N-(5-fluoro-2-methyl-4-(4-((1-methyl-1H-pyrazol-4-yl)amino)-1,3,5-triazin-2-yl)benzyl)-5-(1-(fluoromethyl)cyclopropyl)-1,2,4-oxadiazole-3-carboxamide], the IC50 at BTK [1] is under 1 nM; against BTK [2] it was 100 to 500 nM.

Turning to `Cn1cc(Nc2ncnc(-c3ccc4c(c3)CCCC[C@H]4NC(=O)c3nc(C(C)(C)C)no3)n2)cn1` [Compound 34, 3-tert-butyl-N-[(5R)-2-[4-[(1-methylpyrazol-4-yl)amino]-1,3,5-triazin-2-yl]-6,7,8,9-tetrahydro-5H-benzo[7]annulen-5-yl]-1,2,4-oxadiazole-5-carboxamide], the IC50 against BTK [1] was under 1 nM; at BTK [2], under 100 nM.

Consider `Cc1cc(-c2ncnc(Nc3cnn(C)c3)n2)ccc1CNC(=O)c1noc(C2(CF)CC2)n1` [Compound 49, 5-(1-(fluoromethyl)cyclopropyl)-N-(2-methyl-4-(4-((1-methyl-1H-pyrazol-4-yl)amino)-1,3,5-triazin-2-yl)benzyl)-1,2,4-oxadiazole-3-carboxamide], for which the IC50 was under 1 nM against BTK [1] and 100 to 500 nM against BTK [2].

With `Cc1cc(-c2ncnc(Nc3ccn(C)n3)n2)ccc1CNC(=O)c1nc(C(C)(C)C)no1` [Compound 2, 3-(tert-butyl)-N-(2-methyl-4-(4-((1-methyl-1H-pyrazol-3-yl)amino)-1,3,5-triazin-2-yl)benzyl)-1,2,4-oxadiazole-5-carboxamide], the IC50 is under 1 nM at BTK [1] and 500 to 10000 nM on BTK [2].

As to `Cn1ccc(Nc2ncnc(-c3ccc(CNC(=O)c4nc(C(C)(C)C)no4)c(CC(F)F)c3)n2)n1` [Compound 68, 3-(tert-butyl)-N-(2-(2,2-difluoroethyl)-4-(4-((1-methyl-1H-pyrazol-3-yl)amino)-1,3,5-triazin-2-yl)benzyl)-1,2,4-oxadiazole-5-carboxamide], the IC50 on BTK [1] was in the range of 1 to 10 nM; against BTK [2] it was 500 to 10000 nM.

Regarding `Cn1cc(Nc2ncnc(-c3ccc4c(c3)CN(CC(F)(F)F)CC[C@H]4NC(=O)c3coc(C(C)(C)C)n3)n2)cn1` [Compound 92, 2-tert-butyl-N-[(5R)-8-[4-[(1-methylpyrazol-4-yl)amino]-1,3,5-triazin-2-yl]-2-(2,2,2-trifluoroethyl)-1,3,4,5-tetrahydro-2-benzazepin-5-yl]oxazole-4-carboxamide], the IC50 was under 1 nM against BTK [1] and under 100 nM on BTK [2].

Regarding `Cc1cc(-c2ncnc(Nc3ccn(C)n3)n2)ccc1CNC(=O)c1cc(C(C)(C)C)no1` [Compound 43, 3-(tert-butyl)-N-(2-methyl-4-(4-((1-methyl-1H-pyrazol-3-yl)amino)-1,3,5-triazin-2-yl)benzyl)isoxazole-5-carboxamide], the IC50 on BTK [1] lay within 1 to 10 nM; on BTK [2], 500 to 10000 nM.

In the case of `Cn1ccc(Nc2ncnc(-c3ccc4c(c3)CN(C3COC3)CC[C@H]4NC(=O)c3nc(C(C)(C)C)no3)n2)n1` [Compound 98, (R)-3-(tert-butyl)-N-(8-(4-((1-methyl-1H-pyrazol-3-yl)amino)-1,3,5-triazin-2-yl)-2-(oxetan-3-yl)-2,3,4,5-tetrahydro-1H-benzo[c]azepin-5-yl)-1,2,4-oxadiazole-5-carboxamide], the IC50 is under 1 nM against BTK [1] and 100 to 500 nM at BTK [2].

Turning to `Cc1cc(-c2ncnc(Nc3cnn(C)c3)n2)ccc1CNC(=O)c1cnc(C(C)(C)C)o1` [Compound 99, 2-(tert-butyl)-N-(2-methyl-4-(4-((1-methyl-1H-pyrazol-4-yl)amino)-1,3,5-triazin-2-yl)benzyl)oxazole-5-carboxamide], the IC50 against BTK [1] was under 1 nM; on BTK [2], 500 to 10000 nM.

For `Cn1ccc(Nc2ncnc(-c3ccc(CNC(=O)c4nc(C(C)(C)C)no4)c(Cl)c3F)n2)n1` [Compound 22, 3-(tert-butyl)-N-(2-chloro-3-fluoro-4-(4-((1-methyl-1H-pyrazol-3-yl)amino)-1,3,5-triazin-2-yl)benzyl)-1,2,4-oxadiazole-5-carboxamide], the figures for the IC50 on BTK [1] and against BTK [2] were under 1 nM and 500 to 10000 nM, respectively.

Turning to `Cc1cc(-c2ncnc(Nc3cnn(C)c3)n2)ccc1CNC(=O)c1nc(C(C)(C)C)no1` [Compound 12, 3-(tert-butyl)-N-(2-methyl-4-(4-((1-methyl-1H-pyrazol-4-yl)amino)-1,3,5-triazin-2-yl)benzyl)-1,2,4-oxadiazole-5-carboxamide], the IC50 on BTK [1] is under 1 nM; at BTK [2], 100 to 500 nM.

`C[C@@H](NC(=O)c1nc(C(C)(C)C)no1)c1ccc(-c2ncnc(Nc3ccn(C)n3)n2)c(F)c1Cl` [Compound 102, (R)-3-(tert-butyl)-N-(1-(2-chloro-3-fluoro-4-(4-((1-methyl-1H-pyrazol-3-yl)amino)-1,3,5-triazin-2-yl)phenyl)ethyl)-1,2,4-oxadiazole-5-carboxamide]: the IC50 at BTK [1] was under 1 nM; against BTK [2], 500 to 10000 nM.

`Cc1c(CNC(=O)c2coc(C(C)(C)C)n2)ccc(-c2ncnc(Nc3ccn(C)n3)n2)c1F` [Compound 100, 2-(tert-butyl)-N-(3-fluoro-2-methyl-4-(4-((1-methyl-1H-pyrazol-3-yl)amino)-1,3,5-triazin-2-yl)benzyl)oxazole-4-carboxamide]: the IC50 is under 1 nM at BTK [1] and 500 to 10000 nM against BTK [2].
